# Laboratory results from patent publication US5169963A, “Di-(5-hydroxy-2(5H)2-oxo-4-furyl)alkylmethyl-alpha,omega alkanedioates and N,N-bis-(5-hydroxy-2(5H)2-oxo-4-furyl)alkylmethyl-alpha,omega-dialkanoic acid amides as anti-inflammatory agents” (Allergan, Inc., priority 1991, dated 1992).
# Tests used:
# [1] = target: phosphoinositide-specific phospholipase C; assay: Inhibition of Phosphoinositide-specific Phospholipase C; format: biochemical; conditions: procedure of Bennett et al, Molecular Pharmacology 32:587-593 (1987); read-out: PLC IC50
# Source text: Inhibition of Phosphoinositide-specific Phospholipase C
# The effect of compounds of this invention on phosphoinositide-specific phospholipase C may be determined by procedures described by Bennett et al, Molecular Pharmacology 32:587-593 (1987).
# [2] = target: bee venom phospholipase A2 (Apis mellifera, UniProt P00630); assay: biochemical; conditions: read-out: PLA2 IC50
# Sequence of bee venom phospholipase A2 (P00630 34-167 limits assumed): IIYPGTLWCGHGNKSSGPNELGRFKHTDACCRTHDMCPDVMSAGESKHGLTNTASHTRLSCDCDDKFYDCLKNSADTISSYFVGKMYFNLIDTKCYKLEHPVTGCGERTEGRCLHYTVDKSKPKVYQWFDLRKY
Compound,IC50 [1] [µM],IC50 [2] [µM]
"CCCCCCCCCCCCC(OC(=O)CC(=O)OC(CCCCCCCCCCCC)C1=CC(=O)OC1O)C1=CC(=O)OC1O (centres unmarked) [Compound 1, Bis[1-(5-hydroxy-2(5H)-furano-4-yl)tridecyl]malonate]",2,0.02
CCCCCCCCCCCCC(OC(=O)CCCC(=O)OC(CCCCCCCCCCCC)C1=CC(=O)OC1O)C1=CC(=O)OC1O (centres unmarked) [Compound 2],,0.03
"CCCCCCC(OC(=O)CC(=O)OC(CCCCCC)C1=CC(=O)OC1O)C1=CC(=O)OC1O (centres unmarked) [Compound 4, Di[(1-5-hydroxy-2(5H)2-oxo-4-furyl)heptyl]malonate]",,0.03
"CC(=CCCC1=CCC(C2=CC(=O)OC2O)OC1O)CCC1=C(C)CCCC1(C)C (centres unmarked) [manoalide, Manoalide, reference compound]",3,
